Where “and” joins values, the source holds several entries; their conditions need not be identical. Equal entries are not always repeated.
How the values were obtained:
[1] = test system: MDA-MB-231 cells; assay: CellTiter-Glo (CTG) ATP viability assay, MDA-MB-231; format: cell-based; details: for Min Asymptote: MDA-MB-231, Hill fit of luminescence normalized to solvent control, one line per replicate; for EC50: Homo sapiens, read-out: log10(EC50) (converted)
How it was run: (§1)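 Cell viability was read as ATP content by CellTiter-Glo luminescence after replacing media with reagent, shaking 20 min and resting 10 min. Signal was normalized to solvent control, and a 4-parameter Hill fit to the dose response gave EC50 and depth of response.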

[2] = test system: MDA-MB-231 cells; assay: Quantitative phase imaging (QPI) growth response, MDA-MB-231; format: cell-based; parameters: DoR QPI: scale not given here; ToR 20 μM: unit not given here; details: for Max Asymptote / Min Asymptote: MDA-MB-231, 4-parameter Hill fit of mean SGR vs concentration, one line per replicate
How it was run: (§2)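 Breast cancer lines imaged noninvasively by DPC-based quantitative phase imaging across 6-point dose responses in triplicate with solvent controls, for 24 h or 72 h after 3 h equilibration, then CellTiter-Glo ATP viability. Mean specific growth rate fitted to a 4-parameter Hill curve for EC50, with an F-test (p<0.01) against a flat line to determine response.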

[3] = test system: BT-474 cells; assay: cells; details: for Max Asymptote / Min Asymptote: BT-474, 4-parameter Hill fit of mean SGR vs concentration, one line per replicate
How it was run: as §2

[4] = test system: MCF-7 cells; assay: cells; details: for Max Asymptote / Min Asymptote: MCF-7, 4-parameter Hill fit of mean SGR vs concentration, one line per replicate; for Hill Slope: MCF-7, Hill fit
How it was run: as §2

[5] = test system: MCF-7 cells; assay: CellTiter-Glo (CTG) ATP viability assay, MCF-7; format: cell-based; details: for EC50: Homo sapiens
How it was run: as §1

log10(EC50) ([1]; 72 h CTG, MDA-MB-231, Hill fit): 2.342
EC50 ([1]; MDA-MB-231, 24 h, 24 h CTG, MDA-MB-231, Hill fit): 13.7 nM
EC50 ([1]; MDA-MB-231, 72 h, 72 h CTG, MDA-MB-231, Hill fit): 3.96 nM
EC50 ([2]; Homo sapiens, MDA-MB-231, MDA-MB-231 cell line, EC50 of the standard deviation, read-out: EC50, SD (converted)): 1.11 nM
log10(EC50) ([3]; 72 h QPI, BT-474, Hill fit, EC50 in μM per Table 1): 2.1891
EC50 ([3]; Homo sapiens, BT-474, 72 h, read-out: log10(EC50), 72 h QPI, BT-474, Hill fit (converted), EC50 in μM per Table 1): 0.00383 µM
EC50 ([4]; Homo sapiens, MCF7, read-out: EC50, QPI, MCF-7 cell line, QPI growth rate): 0.912 nM
log10(EC50) ([5]; 72 h CTG, MCF-7, Hill fit): 3.291
EC50 ([5]; MCF7, 72 h, 72 h CTG, MCF-7, Hill fit, read-out: log10(EC50) (converted)): 0.455 nM
EC50 ([5]; MCF7, MCF-7 cell line, CellTiter-Glo, read-out: EC50, CTG (converted)): 0.501 nM
SMILES: CC(=O)O[C@@]12CO[C@@H]1C[C@H](O)[C@@]1(C)C(=O)[C@H](O)C3=C(C)[C@@H](OC(=O)[C@H](O)[C@@H](NC(=O)OC(C)(C)C)c4ccccc4)C[C@@](O)([C@@H](OC(=O)c4ccccc4)[C@H]21)C3(C)C [Docetaxel]
Hill Slope ([1]; 24 h CTG, MDA-MB-231, Hill fit): 7.175
Min Asymptote ([1]; 24 h CTG): 0.8491
Min Asymptote ([1]; 72 h CTG): 0.3348 and 0.2561
DoR CTG ([1]; MDA-MB-231 cell line, depth of response, CellTiter-Glo): 0.7
Max Asymptote ([2]; 24 h QPI): 0.03347 and 0.03066 and 0.02364
Min Asymptote ([2]; 24 h QPI): 0.01673 and 0.01578 and 0.02364
Max Asymptote ([2]; 72 h QPI): 0.01382 and 0.01017 and 0.02742
Min Asymptote ([2]; 72 h QPI): 0.04028 and 0.02962 and 0.02742
growth rate and heterogeneity over time ([2]; MDA-MB-231): decrease in growth rate and heterogeneity simultaneously
growth rate and heterogeneity over time ([2]; MDA-MB-231, 0.4 μM): decrease in growth rate and heterogeneity simultaneously
growth rate and heterogeneity over time ([2]; MDA-MB-231, 2 μM): decrease in growth rate and heterogeneity simultaneously
SGR distribution over 72 h ([2]; MDA-MB-231, 20 μM): distinctive long tail of non-responders that persists at 72 h
growth rate and heterogeneity over time ([2]; MDA-MB-231, 20 μM): decrease in growth rate and heterogeneity simultaneously
growth rate and heterogeneity over time ([2]; MDA-MB-231, lowest concentrations, FIG. 21 G-H): growth rate decreases over time with little change in heterogeneity
DoR QPI ([2]; MDA-MB-231 cell line, depth of response, QPI): 0.7
ToR 20 μM ([2]; MDA-MB-231 cell line, time of response at 20 μM): 3.5
Max Asymptote ([3]; 24 h QPI): 0.009874 and 0.01051
Min Asymptote ([3]; 24 h QPI): 0.00518 and 0.00803
Hill Slope ([3]; 24 h QPI, BT-474, Hill fit): 0.2745 and 0.5361
Max Asymptote ([3]; 72 h QPI): 0.00164 and 0.002702
Min Asymptote ([3]; 72 h QPI): 0.009387 and 0.007464
Hill Slope ([3]; 72 h QPI, BT-474, Hill fit): 3.8183 and 2.5139
growth rate and heterogeneity over time ([3]; BT-474, 0.016 μM): decreased growth rate and increased heterogeneity
growth rate and heterogeneity over time ([3]; BT-474, 0.4 μM): reduced growth rate and increased heterogeneity
growth rate and heterogeneity over time ([3]; BT-474, 2 μM): population heterogeneity is increased and growth rate decreases
growth rate and heterogeneity over time ([3]; BT-474, 20 μM): decreases, while the heterogeneity for both populations increases
change of population spread (SD) of SGR ([3]; BT-474, 20 μM, with significant decrease in mean response): no significant change to the spread
response of growth rate and heterogeneity to treatment ([3]; BT-474, FIG. 5E, 22, 23): both reduced growth rate and slightly increased heterogeneity
DoR QPI ([3]; BT-474 cell line, depth of response, QPI): 0.8
ToR 20 μM ([3]; BT-474 cell line, time of response at 20 μM): 10.9
Max Asymptote ([4]; 24 h QPI): 0.02457 and 0.02891 and 0.02213
Min Asymptote ([4]; 24 h QPI): 0.01057 and 0.01168 and 0.008144
Hill Slope ([4]; 24 h QPI): 1.6196 and 1.4393 and 1.4829
Max Asymptote ([4]; 72 h QPI): 0.00408 and 0.005816 and 0.004488
Min Asymptote ([4]; 72 h QPI): 0.021 and 0.02567 and 0.0188
Hill Slope ([4]; 72 h QPI): 1.6038 and 0.9248 and 1.3228
DoR QPI ([4]; MCF-7 cell line, depth of response, QPI): 0.8
ToR 20 μM ([4]; MCF-7 cell line, time of response at 20 μM): 5.9
Hill Slope ([5]; 72 h CTG, MCF-7, Hill fit): 5.079 and 4.965
Min Asymptote ([5]; 72 h CTG, MCF-7, Hill fit of luminescence normalized to solvent control, one line per replicate): 0.368 (2×) and 0.4065
DoR CTG ([5]; MCF-7 cell line, depth of response, CellTiter-Glo): 0.6
